System: PANK2 silenced human neuroblastoma IMR32 cells (PANK2−/−)
Experiment: Coenzyme A assay in PANK2 silenced cells (LC-MS quantification of free CoA)
Format: cell-based
Settings: compound added twice (24 h + 24 h), relative to 0.1% DMSO controls
Description: A human neuroblastoma IMR32 cell line (ATCC) with stably PANK2 silencing was obtained by lentiviral-delivered small hairpin RNA and cultured in MEM (Invitrogen) supplemented with 10% fetal bovine serum, 2 mM glutamine, 1% penicillin-streptomycin, 1 mM sodium pyruvate, 1 mM non essential amino acids and 1.5 g/l sodium bicarbonate.
For lentiviral shRNA expression, Human Emryonic Kidney HEK-293T cells (ATCC) were transfected with the appropriate pGFP-Lenti-shRNA constructs and packaging plasmids according to manufacturer's protocol (Origene Technologies, Inc.). Four different gene-specific shRNA expression vectors designed against multiple splice variants of PANK2 (Gene ID 80025) were used for transfection. A non-silencing shRNA construct (scrambled shRNA) and an empty vector expressing GFP alone were used as negative controls. The GFP tag subcloned into the lentiviral vectors was used to monitor the transfection efficiency.
IMR32 cells were plated on 150 cm dishes 48 h before transduction with lentiviral particles.
Three days after transduction medium was removed and replaced with fresh medium containing […] puromycin. Medium was replaced every 48 h. Levels of PANK2 expression on selected clones was assessed by Western Blot analysis.
To quantify CoA, PANK2^−/− IMR32 cells were plated on 12-well culture plates (Corning) at a density of 0.2×10^6 cells per well. After 72 h, compounds were freshly dissolved in DMSO and added to the culture medium to yield a final solvent concentration of 0.1% (v/v). Controls with medium containing 0.1% DMSO without test compounds were also included in each plate. Compound treated cells were incubated for 24 h at 37° C. Treatment was repeated after 24 h with newly dissolved compound and cells were further incubated at 37° C. for additional 24 h. Before LC-MS analysis of CoA levels, cells were harvested, counted, and collected in a 15 ml falcon tube and centrifuged at 200×g for 5 min at 4° C. Supernatant was removed and cell pellet was washed in 10 ml of ice-cold PBS. To further confirm that the numbers of cells in each sample were equivalent, an equal fraction of pellet was collected from each sample and subjected to protein determination analysis. After centrifugation and supernatant removal, the cell pellet was rapidly frozen in Liquid Nitrogen and stored at −80° C. until analysis.
Intracellular CoA levels were calculated considering an intracellular volume of 1 million cells=2 μl.
The 1×10^6 cellular pellet was extracted with 120 μl of aqueous 20% TFA. This solution was stirred for 2 min, sonicated in ultrasonic bath for 2 min, then stirred again for 1 min, and centrifuged for 15 min at 14000 g and at 4° C.
100 μL samples of supernatant were dried under N2 at 20° C. in the dark.
Samples were re-dissolved in 100 μl of 10 mM NH4^+ AcO^− buffer pH 5.1+IS (Dextrorphan 50 ng/ml), stirred for 2 min, sonicated in ultrasonic bath for 1 min, then stirred again for 1 min, and injected into LC-MS.
LC-MS/MS was performed using an Agilent HPLC (1100 Series, USA). The LC system was interfaced with an API-4000 Q-Trap triple quadrupole mass spectrometer (AB Sciex, Toronto, Canada) equipped with a TurbolonSpray ionization source operating in positive ion mode. Analyst™ software version 1.6 (AB Sciex, Toronto, Canada) was used for data acquisition and processing. CoA was separated using a Luna C18 column (2.0×50 mm; 5 μm particle size), column at 25° C. and flow rate of 0.2 ml/min. Injection volume was 15 μl. The mobile phases consisted of water containing 10 mM ammonium acetate pH 7 (mobile phase A) and MeCN-2-propanol 9:1 (mobile phase B). Elution was performed using a gradient starting at 2% B, holding at 2% B until 0.1 min, increasing to 98% B at 3.2 min, holding at 98% B until 4.5 min, returning to 2% B at 4.6 min and holding at 2% B until 7.5 min. Precursor ions and MRM transitions used were: CoA m/z 768.1→261.6 and 768.1→136.1. […]

| SMILES | PANK2−/− CoA (Fold Increase): fold increase in Coenzyme A (CoA) levels relative to controls |
| --- | --- |
| COC(=O)CCNC(=O)[C@@H]1OP(=O)(N2CCN(C(C)=O)CC2)OCC1(C)C (stereo partly drawn) [compound 139, methyl 3-((4R)-2-(4-acetylpiperazin-1-yl)-5,5-dimethyl-2-oxido-1,3,2-dioxaphosphinane-4-carboxamido)propanoate] | 2.72 Fold Increase |
| COC(=O)CCNC(=O)[C@@H]1OP(=O)(NCCc2ccccc2)OCC1(C)C (stereo partly drawn) [compound 112, methyl 3-((4R)-5,5-dimethyl-2-oxido-2-(phenethylamino)-1,3,2-dioxaphosphinane-4-carboxamido)propanoate] | 1.42 Fold Increase |
| COC(=O)CCNC(=O)[C@@H]1O[P@@](=O)(Oc2ccc(S(F)(F)(F)(F)F)cc2)OCC1(C)C [2-124, methyl 3-((2S,4R)-5,5-dimethyl-2-oxido-2-(4-(pentafluoro-16-sulfanyl)phenoxy)-1,3,2-dioxaphosphinane-4-carboxamido)propanoate] | 1.12 Fold Increase |
| COC(=O)CCNC(=O)[C@@H]1OP(=O)(OCOC(=O)NCCOC(=O)[C@@H](N)C(C)C)OCC1(C)C (stereo partly drawn) [2-195, 2-((((((4R)-4-((3-methoxy-3-oxopropyl)carbamoyl)-5,5-dimethyl-2-oxido-1,3,2-dioxaphosphinan-2-yl)oxy)methoxy)carbonyl)amino)ethyl L-valinate] | 1.91 Fold Increase |
| CC(C)OC(=O)CCNC(=O)[C@@H]1OP(=O)(O)OCC1(C)C [2-110, isopropyl 3-((4R)-2-hydroxy-5,5-dimethyl-2-oxido-1,3,2-dioxaphosphinane-4-carboxamido)propanoate] | 2.17 Fold Increase |
| COC(=O)CCNC(=O)[C@@H]1O[P@@](=O)(N2CCOCC2)OCC1(C)C [compound 136, methyl 3-((2R,4R)-5,5-dimethyl-2-morpholino-2-oxido-1,3,2-dioxaphosphinane-4-carboxamido)propanoate] | 1.93 Fold Increase |
| COC(=O)CCNC(=O)[C@@H]1O[P@](=O)(OCOC(=O)c2sncc2C)OCC1(C)C [2-177, (((2R,4R)-4-((3-methoxy-3-oxopropyl)carbamoyl)-5,5-dimethyl-2-oxido-1,3,2-dioxaphosphinan-2-yl)oxy)methyl 4-methylisothiazole-5-carboxylate] | 77.18 Fold Increase |
| COC(=O)CCNC(=O)[C@@H]1O[P@@](=O)(OCOC(=O)c2scnc2C(C)(C)C)OCC1(C)C [2-192, (((2S,4R)-4-((3-methoxy-3-oxopropyl)carbamoyl)-5,5-dimethyl-2-oxido-1,3,2-dioxaphosphinan-2-yl)oxy)methyl 4-(tert-butyl)thiazole-5-carboxylate] | 2.52 Fold Increase |
| CC(C)(C)C(=O)OCOP1(=O)OCC(C)(C)[C@H](C(=O)NCCC(=O)OCc2ccncc2)O1 (stereo partly drawn) [Compound No. 101, (((4R)-5,5-dimethyl-2-oxido-4-((3-oxo-3-(pyridin-4-ylmethoxy)propyl)carbamoyl)-1,3,2-dioxaphosphinan-2-yl)oxy)methyl pivalate] | 81.66 Fold Increase |
| COC(=O)CCNC(=O)[C@@H]1OP(=O)(OCOC(=O)c2ccnn2C)OCC1(C)C (stereo partly drawn) [2-142, (((4R)-4-((3-methoxy-3-oxopropyl)carbamoyl)-5,5-dimethyl-2-oxido-1,3,2-dioxaphosphinan-2-yl)oxy)methyl 1-methyl-1H-pyrazole-5-carboxylate] | 58.1 Fold Increase |
| COC(=O)CCNC(=O)[C@@H]1O[P@@](=O)(OCOC(=O)c2sncc2C)OCC1(C)C [2-176, (((2S,4R)-4-((3-methoxy-3-oxopropyl)carbamoyl)-5,5-dimethyl-2-oxido-1,3,2-dioxaphosphinan-2-yl)oxy)methyl 4-methylisothiazole-5-carboxylate] | 53.24 Fold Increase |
| COC(=O)CCNC(=O)[C@@H]1O[P@@](=O)(Oc2ccccc2C(=O)OC)OCC1(C)C [2-117, methyl 2-(((2S,4R)-4-((3-methoxy-3-oxopropyl)carbamoyl)-5,5-dimethyl-2-oxido-1,3,2-dioxaphosphinan-2-yl)oxy)benzoate] | 1.11 Fold Increase |
| COC(=O)CCNC(=O)[C@@H]1O[P@](=O)(OCOC(=O)NCCSC(=O)[C@@H](N)C(C)C)OCC1(C)C [2-193, methyl 3-((2R,4R)-2-((((2-((L-valyl)thio)ethyl)carbamoyl)oxy)methoxy)-5,5-dimethyl-2-oxido-1,3,2-dioxaphosphinane-4-carboxamido)propanoate] | 5.03 Fold Increase |
| COC(=O)CCNC(=O)[C@@H]1OP(=O)(OCOC(=O)NC(C)(C)COC(=O)C(C)(C)C)OCC1(C)C (stereo partly drawn) [2-167, 2-((((((4R)-4-((3-methoxy-3-oxopropyl)carbamoyl)-5,5-dimethyl-2-oxido-1,3,2-dioxaphosphinan-2-yl)oxy)methoxy)carbonyl)amino)-2-methylpropyl pivalate] | 3.26 Fold Increase |
| COC(=O)CCNC(=O)[C@@H]1O[P@@](=O)(Oc2ccc(C[C@H](NC(=O)OC(C)(C)C)C(=O)OC)cc2)OCC1(C)C (single isomer, unassigned) [2-204] | 5.75 Fold Increase |
| COC(=O)CCNC(=O)[C@@H]1OP(=O)(Oc2ccc(C(F)(F)F)nc2)OCC1(C)C (stereo partly drawn) [2-122, methyl 3-((4R)-5,5-dimethyl-2-oxido-2-((6-(trifluoromethyl)pyridin-3-yl)oxy)-1,3,2-dioxaphosphinane-4-carboxamido)propanoate] | 1.21 Fold Increase |
| COC(=O)CCNC(=O)[C@@H]1OP(=O)(OCOC(=O)N[C@@H](CSC(=O)C(C)(C)C)C(=O)OCC(=O)c2ccccc2)OCC1(C)C (stereo partly drawn) [2-202, 2-oxo-2-phenylethyl N-(((((4R)-4-((3-methoxy-3-oxopropyl)carbamoyl)-5,5-dimethyl-2-oxido-1,3,2-dioxaphosphinan-2-yl)oxy)methoxy)carbonyl)-S-pivaloyl-L-cysteinate] | 2.62 Fold Increase |
| COC(=O)CCNC(=O)[C@@H]1O[P@@](=O)(OCOC(=O)c2ccnn2C)OCC1(C)C [2-184, (((2S,4R)-4-((3-methoxy-3-oxopropyl)carbamoyl)-5,5-dimethyl-2-oxido-1,3,2-dioxaphosphinan-2-yl)oxy)methyl 1-methyl-1H-pyrazole-5-carboxylate] | 21.67 Fold Increase |
| COC(=O)CCNC(=O)[C@@H]1O[P@@](=O)(OCOC(=O)NCCSC(=O)[C@@H](N)C(C)C)OCC1(C)C [2-194, methyl 3-((2S,4R)-2-((((2-((L-valyl)thio)ethyl)carbamoyl)oxy)methoxy)-5,5-dimethyl-2-oxido-1,3,2-dioxaphosphinane-4-carboxamido)propanoate] | 11.44 Fold Increase |
| COC(=O)CCNC(=O)[C@@H]1O[P@@](=O)(OCOC(=O)NC(C)(C)COC(=O)[C@@H](N)C(C)C)OCC1(C)C [2-158, 2-((((((2S,4R)-4-((3-methoxy-3-oxopropyl)carbamoyl)-5,5-dimethyl-2-oxido-1,3,2-dioxaphosphinan-2-yl)oxy)methoxy)carbonyl)amino)-2-methylpropyl L-valinate] | 2.72 Fold Increase |
